From ChEMBL document CHEMBL1154909, “Dammarane-type glycosides from Gynostemma pentaphyllum and their effects on IL-4-induced eotaxin expression in human bronchial epithelial cells” (J Nat Prod, 2010) come the findings set out here.

The nature of series [1]: Antiinflammatory activity in human BEAS2B cells assessed as inhibition of IL4 and TNF-alpha-induced eotaxin production at 10 uM after 48 hrs by ELISA pretreated for 2 hrs before IL4 and TNFalpha challenge. It is filed as functional, BEAS-2B.
Series [2] in a line: Antiinflammatory activity in human BEAS2B cells assessed as inhibition of IL4-induced eotaxin production at 10 uM after 48 hrs by ELISA pretreated for 2 hrs before IL4 challenge (reference value: 58.5+/-4.7 ng/mL). It is filed as functional, BEAS-2B.
Series [3] can be described thus: Cytotoxicity against human BEAS2B cells at 10 uM after 48 hrs by MTT assay. It is filed as cell-based. The conditions noted are these: beas-2b.
Series [4] can be described thus: Cytotoxicity against human BEAS2B cells at 10 uM after 48 hrs by MTT assay in the presence of IL4. It is filed as cell-based. The settings on record: beas-2b.
The nature of series [5]: Antiinflammatory activity in human BEAS2B cells assessed as inhibition of IL4 and TNF-alpha-induced eotaxin production after 48 hrs by ELISA pretreated for 2 hrs before IL4 and TNFalpha challenge (Rvb= 450+/-38.4 pg/mL). It is filed as functional, BEAS-2B.
For series [6], the system named is BEAS-2B. Kind of series: Antiinflammatory activity in human BEAS2B cells assessed as inhibition of IL4-induced eotaxin production after 48 hrs by ELISA pretreated for 2 hrs before IL4 challenge. It is filed as functional, cell-based.

With `COc1ccc2ccc(=O)oc2c1CC=C(C)C` [OSTHOLE], the results for the Activity in series [1] and in series [2] were 187.3 pg/mL and 16.8 pg/mL, respectively.
For the compound `CC(C)=CCC[C@](C)(O[C@@H]1O[C@H](CO[C@@H]2OC[C@@H](O)[C@H](O)[C@H]2O)[C@@H](O)[C@H](O)[C@H]1O)[C@H]1CC[C@]2(C)[C@@H]1[C@H](O)C[C@@H]1[C@@]3(C)C[C@@H](O)[C@H](O[C@@H]4O[C@H](CO)[C@@H](O[C@@H]5O[C@H](CO)[C@@H](O)[C@H](O)[C@H]5O)[C@H](O)[C@H]4O)C(C)(C)[C@@H]3CC[C@]12C`, the Activity entry was “Non-toxic” in series [3], “Non-toxic” in series [4], 197.2 pg/mL in series [5] and “Dose-dependent effect” in series [6].
`CC(=O)OC[C@H]1O[C@@H](O[C@H]2[C@H](O[C@@](C)(CCC=C(C)C)[C@H]3CC[C@]4(C)[C@@H]3[C@H](O)C[C@@H]3[C@@]5(C)C[C@@H](O)[C@H](O[C@@H]6O[C@H](CO)[C@@H](O)[C@H](O)[C@H]6O)C(C)(C)[C@@H]5CC[C@]34C)O[C@H](CO)[C@@H](O)[C@@H]2O)[C@H](O)[C@@H](O)[C@@H]1O`: the Activity in series [1] was 157.2 pg/mL; in series [6], “Dose-dependent effect”.
